Publication PMC8954214, “Preparation, Identification, Molecular Docking Study and Protective Function on HUVECs of Novel ACE Inhibitory Peptides from Protein Hydrolysate of Skipjack Tuna Muscle” (Marine Drugs, 2022)
Like-named read-outs stand apart in the source and are kept apart here. Where a SMILES comes first, the peptide text is derived from it.

How the values were obtained:
[1] = system: ACE C-domain; set-up: method as in PMID 33340899; conditions: docking; cited from earlier work
[2] = system: ACE N-domain; set-up: method as in PMID 33340899; conditions: docking; cited from earlier work
[3] = target: T1, angiotensin-I-converting enzyme (ACE) (UniProt P12822)
T1 sequence: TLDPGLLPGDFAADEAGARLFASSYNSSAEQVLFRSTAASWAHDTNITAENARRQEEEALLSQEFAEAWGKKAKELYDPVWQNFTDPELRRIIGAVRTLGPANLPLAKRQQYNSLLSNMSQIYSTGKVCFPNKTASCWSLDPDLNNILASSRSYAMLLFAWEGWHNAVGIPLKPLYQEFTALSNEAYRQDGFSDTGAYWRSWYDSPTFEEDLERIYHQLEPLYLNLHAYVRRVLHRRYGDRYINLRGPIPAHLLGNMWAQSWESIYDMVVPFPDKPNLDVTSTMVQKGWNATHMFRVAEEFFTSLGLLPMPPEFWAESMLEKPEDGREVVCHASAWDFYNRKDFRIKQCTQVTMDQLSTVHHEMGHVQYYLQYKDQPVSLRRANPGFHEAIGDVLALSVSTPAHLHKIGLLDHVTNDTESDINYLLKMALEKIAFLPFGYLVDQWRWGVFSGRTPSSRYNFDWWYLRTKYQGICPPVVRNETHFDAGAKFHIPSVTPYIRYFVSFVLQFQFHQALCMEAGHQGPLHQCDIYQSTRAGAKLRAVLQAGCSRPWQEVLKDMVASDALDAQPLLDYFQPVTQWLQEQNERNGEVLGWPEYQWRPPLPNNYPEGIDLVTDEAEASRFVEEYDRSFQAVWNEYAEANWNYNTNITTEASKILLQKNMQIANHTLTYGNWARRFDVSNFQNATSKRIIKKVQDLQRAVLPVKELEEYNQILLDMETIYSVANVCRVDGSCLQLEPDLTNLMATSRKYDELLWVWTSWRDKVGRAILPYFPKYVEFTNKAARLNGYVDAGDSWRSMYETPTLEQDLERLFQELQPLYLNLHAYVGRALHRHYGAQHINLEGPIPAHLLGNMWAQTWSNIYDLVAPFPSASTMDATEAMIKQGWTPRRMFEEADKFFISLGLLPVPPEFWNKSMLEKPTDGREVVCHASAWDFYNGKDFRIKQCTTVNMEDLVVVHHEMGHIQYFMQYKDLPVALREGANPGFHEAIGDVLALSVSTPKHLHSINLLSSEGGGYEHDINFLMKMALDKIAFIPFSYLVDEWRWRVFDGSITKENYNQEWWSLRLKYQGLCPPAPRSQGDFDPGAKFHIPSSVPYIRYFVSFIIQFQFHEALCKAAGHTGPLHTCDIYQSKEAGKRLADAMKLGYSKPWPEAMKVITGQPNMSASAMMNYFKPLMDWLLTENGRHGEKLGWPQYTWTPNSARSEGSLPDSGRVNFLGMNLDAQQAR

[4] = system: HUVECs; assay: NO production in HUVECs; assay type: cell-based, human; conditions: 24 h; for NO level: control 34.41 ± 1.27
[5] = system: HUVECs; assay: ET-1 secretion of HUVECs; assay type: cell-based, human; conditions: 24 h; for ET-1 secretion: control 118.68 ± 0.53
Text: Skipjack tuna (K. pelamis) muscle was provided by Ningbo Today Food Co., Ltd (China). Sephadex G-25 resins and NO assay kit (Nitrate reductase approach, A012-1) were purchased from Nanjing Jiancheng Bioengineering Institute (China). ET-1 ELISA Kit (HM10108) was purchased from Shanghai Qiaodu Biotechnology Co. Ltd. (China).Trypsase (≥20,000 U/g), pepsase (≥500,000 U/g), papain (≥400,000 U/g), ACE (A6778) and N-[3-(2-Furyl) acryloyl]-Phe-Gly-Gly (FAPGG, F713) were purchased from Sigma-Aldrich (Shanghai) Trading Co., Ltd. (China). […] ACEi Peptides of (TMAP1-TMAP6) with purity higher than 98% were synthesized in Shanghai Apeptide Co. Ltd. (China).
The NO and ET-1 contents of HUVECs were determined after a 24 h treatment of ACEi peptides. […] NO and ET-1 production in treated cells were measured by employing human NO and ET-1 assay kit as manufactures’ protocol, separately.

[6] = target: T2, ACE (Oryctolagus cuniculus, UniProt P12822); conditions: cited from earlier work
T2 construct: purchased Sigma-Aldrich (Shanghai) Trading Co., Ltd. A6778
T2 sequence (P12822 34-1310): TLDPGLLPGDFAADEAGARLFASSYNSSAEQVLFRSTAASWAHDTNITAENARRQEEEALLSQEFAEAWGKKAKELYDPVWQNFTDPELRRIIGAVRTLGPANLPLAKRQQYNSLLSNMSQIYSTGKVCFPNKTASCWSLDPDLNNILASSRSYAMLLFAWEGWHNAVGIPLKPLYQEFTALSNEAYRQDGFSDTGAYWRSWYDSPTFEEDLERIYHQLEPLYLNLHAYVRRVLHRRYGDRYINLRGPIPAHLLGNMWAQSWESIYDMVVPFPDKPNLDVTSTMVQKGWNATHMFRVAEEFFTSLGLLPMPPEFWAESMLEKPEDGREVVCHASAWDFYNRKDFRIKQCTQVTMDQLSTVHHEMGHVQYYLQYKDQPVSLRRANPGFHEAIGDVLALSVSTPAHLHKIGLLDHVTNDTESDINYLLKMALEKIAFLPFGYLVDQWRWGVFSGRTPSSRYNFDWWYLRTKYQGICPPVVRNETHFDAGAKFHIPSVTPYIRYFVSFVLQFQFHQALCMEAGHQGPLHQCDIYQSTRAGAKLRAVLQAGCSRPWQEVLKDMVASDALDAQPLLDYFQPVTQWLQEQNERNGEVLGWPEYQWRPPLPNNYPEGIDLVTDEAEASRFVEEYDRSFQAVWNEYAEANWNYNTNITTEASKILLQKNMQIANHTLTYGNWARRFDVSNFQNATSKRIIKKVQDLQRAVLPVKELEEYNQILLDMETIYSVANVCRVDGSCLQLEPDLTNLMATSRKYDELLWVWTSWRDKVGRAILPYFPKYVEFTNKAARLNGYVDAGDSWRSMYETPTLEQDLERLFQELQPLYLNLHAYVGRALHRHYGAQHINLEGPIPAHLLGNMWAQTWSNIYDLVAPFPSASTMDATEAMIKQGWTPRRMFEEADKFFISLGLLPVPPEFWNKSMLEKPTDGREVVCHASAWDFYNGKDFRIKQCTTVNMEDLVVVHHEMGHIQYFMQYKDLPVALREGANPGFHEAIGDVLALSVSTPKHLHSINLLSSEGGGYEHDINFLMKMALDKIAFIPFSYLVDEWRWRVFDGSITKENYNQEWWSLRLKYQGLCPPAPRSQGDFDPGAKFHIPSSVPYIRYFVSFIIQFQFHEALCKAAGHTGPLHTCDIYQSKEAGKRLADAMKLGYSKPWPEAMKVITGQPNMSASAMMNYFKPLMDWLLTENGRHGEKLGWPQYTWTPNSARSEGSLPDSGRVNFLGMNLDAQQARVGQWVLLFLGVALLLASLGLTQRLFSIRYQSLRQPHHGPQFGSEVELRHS
Text: Among these peptides, ACEi peptides represent a promising alternative to synthetic drugs to control hypertension. For instance, canary seed peptides (CSP) have great potential as anti-hypertensive and anti-obesity agents due to their inhibition activity on ACE and pancreatic lipase, and their non-competitive inhibitory activity was due to their destabilization of the transition state and Zn(II) coordination in ACE [13]. […] Auwal et al. illustrated that branched aliphatic or dicarboxylic amino acids (Val, Ala, Ile, and Leu) at the N-terminus could strengthen ACEi ability of peptides. Then, Val residue at the N-terminus of TMAP2 could improve its ACEi ability. […] Therefore, Ser residue, especially its hydroxyl group, should play a vital effect in the ACEi capability of ...

[7] = target: T2, ACE; set-up: method as in 3 sources, ref 47 = [47]; doi:10.1016/j.lwt.2016.08.047; 47. Wang X. Chen H. Fu X. Li S. Wei J. A novel antioxidant and ACE inhibitory peptide from rice bran protein: Biochemical characterization and molecular docking study LWT-Food Sci.Technol. 2017 75 93 ||| ref 12 = [12]; PMID 31353484; doi:10.1111/jfbc.12572; 12. Fan H. Liao W. Wu J. Molecular interactions, bioavailability, and cellular mechanisms of angiotensin-converting enzyme inhibitory peptides J. Food Biochem. 2019 43 e12572 10.1111/jfbc.12572 313534 ||| ref 51 = [51]; PMID 28873590; doi:10.1016/j.foodchem.2017.06.112; 51. Abdelhedi O. Nasri R. Mora L. Jridi M. Toldra F. Nasri M. In silico analysis and molecular docking study of angiotensin I-converting enzyme inhibitory peptides from smooth-hound viscera protein hy; conditions: docking; cited from earlier work

In the case of LVLL [literature peptide docked to ACE], the C-domain affinity [1] is given as -8.6 kcal/mol and the N-domain affinity [2] is given as -7.5 kcal/mol.

Molecule Phe-Glu-Met (FEM) (peptide) has an IC50 of ACE inhibitory (ACEi) activity; enzyme assay with FAPGG as substrate, Tris-HCl 50 mM pH 8.3, 300 mM NaCl, 37 °C, product measured by HPLC [3] of 2.18 mg/mL.

In the case of `NC[C@H](O)c1ccc(O)c(O)c1` [NE, norepinephrine], the NO level ([4]; NE 0.5 μM, p < 0.001) is reported as 24.25 ± 0.63 μmol/gprot and the ET-1 secretion ([5]; NE 0.5 μM, p < 0.01) is reported as 140.23 ± 5.81 pg/mL.

With `C[C@H](CS)C(=O)N1CCC[C@H]1C(=O)O` [Cap, captopril] the NO level ([4]; Cap positive control (1 μM per method), p < 0.001) was 65.96 ± 1.83 μmol/gprot and the ET-1 secretion ([5]; 0.5 μM Cap, p < 0.001) was 84.16 ± 1.18 pg/mL.

For MVGSAPGVL [ACEi peptide from skate], the IC50 ([6]; skate peptides) is given as 3.09 µM.

For VSQLTR [ACEi peptide with Ser residue], the IC50 [6] is given as 105 µM.

With `N[C@@H](CO)C(=O)N1CCC[C@H]1C(=O)O` [TMAP1, Ser-Pro] (H-Ser-Pro-OH) the “reversal of NE-reduced NO content” value ([4]; 200 μM peptide with NE (0.5 μM), p < 0.001 vs NE) was “partially offset”, the NO level ([4]; 400 μM, p < 0.001) was 57.25 ± 2.31 μmol/gprot and the “NO level vs control group” value ([4]; 100, 200 and 400 μM, p < 0.001) was “significantly increased”. For the same molecule, the “ET-1 secretion with NE” value ([5]; 200 μM peptide with NE (0.5 μM), NE alone 140.23 ± 5.81, p < 0.01) was 114.08 ± 5.82 pg/mL, the ET-1 secretion ([5]; 400 μM) was 94.86 ± 0.39 pg/mL and the “ET-1 secretion vs control group” value ([5]; tested concentrations (100–400 μM), p < 0.001 or p < 0.01) was “decreased”.

For “GPAGPRGPAG [larger peptide composed of 7–11 amino acid residues]”, the “interaction with ACE channel / active site” value [7] is listed as “showed low interaction scores”.

For SPRCR [ACEi peptide with Ser residue], the IC50 [6] is given as 41 µM.

For “AGPPGSDGQPGA [ACEi peptide from lizardfish]”, the IC50 ([6]; lizardfish peptide) is listed as 544 µg/mL.

In the case of “HWTTQR [ACEi peptide from seaweed pipefish]”, the IC50 ([6]; seaweed pipefish peptide) is listed as 1440 µM.

For “TTMYPGIA [larger peptide composed of 7–11 amino acid residues]”, the “interaction with ACE channel / active site” value [7] is given as “showed low interaction scores”.

For EVLIQ [ACEi peptide from stone fish], the IC50 ([6]; stone fish peptides) is listed as 1440 µM.

For EHPVL [ACEi peptide from stone fish], the IC50 ([6]; stone fish peptides) is given as 1680 µM.

For YVVF [literature peptide docked to ACE], the C-domain affinity [1] is given as -9.8 kcal/mol and the N-domain affinity [2] is given as -8.8 kcal/mol.

Molecule Ser-Pro (SP) (peptide) has an IC50 of ACE inhibitory (ACEi) activity; enzyme assay with FAPGG as substrate, Tris-HCl 50 mM pH 8.3, 300 mM NaCl, 37 °C, product measured by HPLC [3] of 0.06 mg/mL.

In the case of “ALPMHIR [larger peptide composed of 7–11 amino acid residues]”, the “interaction with ACE channel / active site” value [7] is given as “showed low interaction scores”.

For “VKPLPQSG [larger peptide composed of 7–11 amino acid residues]”, the “interaction with ACE channel / active site” value [7] is listed as “showed low interaction scores”.

For “AVVPPSDKM [larger peptide composed of 7–11 amino acid residues]”, the “interaction with ACE channel / active site” value [7] is listed as “showed low interaction scores”.

For LAPPTM [ACEi peptide from stone fish], the IC50 ([6]; stone fish peptides) is listed as 1310 µM.

With Tyr-Glu (YE) (peptide) the IC50 of ACE inhibitory (ACEi) activity; enzyme assay with FAPGG as substrate, Tris-HCl 50 mM pH 8.3, 300 mM NaCl, 37 °C, product measured by HPLC [3] was 0.8 mg/mL.

For LGPLGHQ [ACEi peptide from skate], the IC50 ([6]; skate peptides) is listed as 4.22 µM.

With VDRYF [Val-Asp-Arg-Tyr-Phe (VDRYF)] the IC50 of ACE inhibitory (ACEi) activity; enzyme assay with FAPGG as substrate, Tris-HCl 50 mM pH 8.3, 300 mM NaCl, 37 °C, product measured by HPLC [3] was 0.28 mg/mL.

In the case of VHGVV [Val-His-Gly-Val-Val (VHGVV)], the IC50 of ACE inhibitory (ACEi) activity; enzyme assay with FAPGG as substrate, Tris-HCl 50 mM pH 8.3, 300 mM NaCl, 37 °C, product measured by HPLC [3] is reported as 0.9 mg/mL.

With FWRV [Phe-Trp-Arg-Val (FWRV)] the IC50 of ACE inhibitory (ACEi) activity; enzyme assay with FAPGG as substrate, Tris-HCl 50 mM pH 8.3, 300 mM NaCl, 37 °C, product measured by HPLC [3] was 0.76 mg/mL.
